Test results from patent publication US20260042764A1, “COMPOSITIONS AND METHODS FOR INHIBITION OF KRAS” (TheRas, Inc., priority 2022, published 2026).
pIC50: −log10 of the molar value.

Columns and labels:
[1] = target: T1, Avi-KRAS G12R (1-169) GppNHp/RAF1 RBD-3xFLAG (52-151) (Homo sapiens, UniProt P01116, G12R); assay: Raf1-KRAS G12R-GppNHP disruption HTRF assay (Biological Example 1); assay type: binding
T1 construct: Avi-KRAS G12R (1-169)
Procedure, shortened: (§1)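 Read-out is HTRF signal of the KRAS–RAF1 RBD complex, reported as percentage of activity relative to DMSO (100%). Protein mix and detection reagents each incubated 1 h at room temperature with 700 rpm shaking. Buffer: 50 mM Tris pH 7.5, 100 mM NaCl, 5 mM MgCl2, 0.1% BSA, 0.01% Tween, 10% DMSO.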

[2] = target: T2, Avi-KRAS G12V (1-169) GppNHp/RAF1 RBD-3xFLAG (52-151) (Homo sapiens, UniProt P01116, G12V); assay: Raf1-KRAS G12V-GppNHP disruption HTRF assay (Biological Example 1); assay type: binding
T2 construct: Avi-KRAS G12V (1-169)
T2 sequence (P01116 1-169 isoform P01116-2 G12V): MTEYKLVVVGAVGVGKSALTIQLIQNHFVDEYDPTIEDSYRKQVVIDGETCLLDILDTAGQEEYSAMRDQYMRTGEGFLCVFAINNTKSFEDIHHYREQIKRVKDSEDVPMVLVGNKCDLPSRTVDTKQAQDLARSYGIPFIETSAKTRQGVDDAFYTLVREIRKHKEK
Procedure, shortened: as §1

[3] = target: T3, Avi-KRAS WT (1-169) GppNHp/RAF1 RBD-3xFLAG (52-151) (Homo sapiens, UniProt P01116); assay: Raf1-KRAS WT-GppNHP disruption HTRF assay (Biological Example 1); assay type: binding
T3 construct: Avi-KRAS WT (1-169)
T3 sequence (P01116 1-169 isoform P01116-2): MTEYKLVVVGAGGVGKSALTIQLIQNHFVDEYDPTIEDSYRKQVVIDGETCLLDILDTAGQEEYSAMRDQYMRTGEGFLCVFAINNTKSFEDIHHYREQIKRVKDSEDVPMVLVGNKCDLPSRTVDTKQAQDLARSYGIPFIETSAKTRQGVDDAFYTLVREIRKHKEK
Procedure, shortened: as §1

[4] = target: T4, Avi-KRAS G12D (2-169) GTP/RAF1 RBD-3xFLAG (51-131) (Homo sapiens, UniProt P01116, G12D); assay: Raf1-KRAS G12D-GTP disruption HTRF assay (Biological Example 3); assay type: binding; settings: KRAS G12D, GTP-loaded
T4 construct: Avi-KRAS G12D (2-169)
T4 sequence (P01116 2-169 isoform P01116-2 G12D): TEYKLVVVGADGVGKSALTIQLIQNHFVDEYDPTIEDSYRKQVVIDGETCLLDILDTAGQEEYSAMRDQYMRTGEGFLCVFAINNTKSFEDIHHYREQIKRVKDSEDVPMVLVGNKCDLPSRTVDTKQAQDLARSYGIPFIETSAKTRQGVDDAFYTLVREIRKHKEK
Procedure, shortened: (§2)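 50 nM Avi-KRAS (2-169) GTP/RAF1 RBD complex; 75 nM RBD-Avi; pH 7.5 Tris buffer, 10% DMSO; cpd 30 μM top, 3x, 10 pts; 1 h RT, 700 rpm; HTRF, % of DMSO.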

[5] = target: T5, Avi-KRAS G12V (2-169) GTP/RAF1 RBD-3xFLAG (51-131) (Homo sapiens, UniProt P01116, G12V); assay: Raf1-KRAS G12V-GTP disruption HTRF assay (Biological Example 3); assay type: binding; settings: KRAS G12V, GTP-loaded
T5 construct: Avi-KRAS G12V (2-169)
T5 sequence (P01116 2-169 isoform P01116-2 G12V): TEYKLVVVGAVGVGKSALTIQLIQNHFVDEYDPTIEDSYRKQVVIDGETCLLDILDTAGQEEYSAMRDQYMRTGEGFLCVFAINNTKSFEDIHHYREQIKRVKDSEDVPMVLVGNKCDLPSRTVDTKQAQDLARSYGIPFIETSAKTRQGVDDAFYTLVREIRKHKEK
Procedure, shortened: as §2

SW620 cells (KRAS G12V) = assay: Cell-based pERK HTRF assay in SW620 cell (Biological Example 4)
Procedure, shortened: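 SW620 seeded in RPMI/10% FBS, next day dosed 4 h (top 1 μM, half-log, 9 pts, 0.25% DMSO). Lysed, pERK by d2/Eu cryptate HTRF, 4–24 h RT, 615 nm read.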

[6] = Homo sapiens, SW-620, SW620 (KRAS G12V) cells
[7] = Homo sapiens, SW-620, SW620 (KRAS G12V) cells, pERK HTRF
[8] = KRAS G12R, GppNHp-loaded, class symbols
[9] = KRAS G12V, GppNHp-loaded, class symbols
[10] = KRAS WT, GppNHp-loaded, class symbols
[11] = Homo sapiens, SW-620, SW620 (KRAS G12V) cells, pERK HTRF, class symbols

T1 sequence (P01116 1-169 isoform P01116-2 G12R): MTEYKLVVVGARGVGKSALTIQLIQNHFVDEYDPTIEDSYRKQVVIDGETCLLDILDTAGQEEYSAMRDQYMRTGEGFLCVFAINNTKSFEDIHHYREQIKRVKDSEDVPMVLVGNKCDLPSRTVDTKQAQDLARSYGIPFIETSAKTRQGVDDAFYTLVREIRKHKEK

SMILES | pIC50 ([1]; KRAS G12R-GppNHp/RAF1 RBD HTRF) | pIC50 ([2]; KRAS G12V-GppNHp/RAF1 RBD HTRF) | pIC50 ([3]; KRAS WT-GppNHp/RAF1 RBD HTRF) | pIC50 [4] | pIC50 [5] | pIC50 (SW620 cells (KRAS G12V); [6]) | pIC50 (SW620 cells (KRAS G12V); [7]) | pIC50 [1, 8] | pIC50 [2, 9] | pIC50 [3, 10] | pIC50 (SW620 cells (KRAS G12V); [11]) | pIC50 (SW620 cells (KRAS G12V); SW620 (KRAS G12V) cells) | pIC50 (SW620 cells (KRAS G12V); SW620 (KRAS G12V) cells, pERK HTRF, class symbols)
CC(=O)N1C[C@H](N(C)c2nc(OC[C@@]34CCCN3C[C@H](F)C4)nc3c(F)c(-c4ccc(F)c5sc(N)c(C#N)c45)c(C(F)(F)F)cc23)C[C@@H]1C [Compound 298] | 6.00 to 7.00 | 6.00 to 7.00 | 6.00 to 7.00 | 5.00 to 6.00 | 6.00 to 7.00 | > 7.00 | > 7.00 |  |  |  |  |  | 
CC(=O)N1CC[C@H](N(c2nc(OC[C@@]34CCCN3C[C@H](F)C4)nc3c(F)c(-c4ccc(F)c5sc(N)c(C#N)c45)c(C(F)(F)F)cc23)C2CC2)C1 (atropisomer, axis not shown) [Compound 608] |  |  |  | 6.00 to 7.00 | 6.00 to 7.00 | > 7.00 |  | 6.00 to 7.00 | 6.00 to 7.00 | 6.00 to 7.00 | > 7.00 |  | 
CCN(c1nc(OC[C@@]23CCCN2C[C@H](F)C3)nc2c(F)c(-c3ccc(F)c4sc(N)c(C#N)c34)c(C(F)(F)F)cc12)[C@H]1C[C@@H]2CN(C)C(=O)N2C1 (atropisomer, axis not shown) [Compound 605] |  |  |  | 6.00 to 7.00 | 6.00 to 7.00 | > 7.00 |  | > 7.00 | 6.00 to 7.00 | > 7.00 | > 7.00 |  | 
CCN(c1nc(OC[C@@]23CCCN2C[C@H](F)C3)nc2c(F)c(-c3ccc(F)c4sc(N)c(C#N)c34)c(C(F)(F)F)cc12)[C@@H]1CCN(C(=O)C2CC2)C1 [Compound 329] | 6.00 to 7.00 | 6.00 to 7.00 | 6.00 to 7.00 | 6.00 to 7.00 | 6.00 to 7.00 | > 7.00 | > 7.00 |  |  |  |  |  | 
CCN(c1nc(OCC23CCCN2CC(F)C3)nc2c(F)c(-c3ccc(F)c4sc(N)c(C#N)c34)c(C(F)(F)F)cc12)C1CC(C)N(C(=O)C2CC2(F)F)C1 (stereo not drawn) [Compound 732] |  |  |  | 6.00 to 7.00 | 6.00 to 7.00 |  |  | > 7.00 | > 7.00 | 6.00 to 7.00 |  | > 7.00 | > 7.00
N#Cc1c(N)sc2c(F)ccc(-c3c(C(F)(F)F)cc4c(N(C5CC5)[C@H]5CCS(=O)(=O)C5)nc(OC[C@@]56CCCN5C[C@H](F)C6)nc4c3F)c12 [Compound 702] |  |  |  | 5.00 to 6.00 | < 5.00 | 6.00 to 7.00 |  | 5.00 to 6.00 | 5.00 to 6.00 | 5.00 to 6.00 | 6.00 to 7.00 |  | 

Results, then the compound that gave them:

pIC50 ([1]; KRAS G12R-GppNHp/RAF1 RBD HTRF) | pIC50 ([2]; KRAS G12V-GppNHp/RAF1 RBD HTRF) | pIC50 ([3]; KRAS WT-GppNHp/RAF1 RBD HTRF) | pIC50 [4] | pIC50 [5] | pIC50 (SW620 cells (KRAS G12V); [6]) | pIC50 (SW620 cells (KRAS G12V); [7]) | pIC50 [1, 8] | pIC50 [2, 9] | pIC50 [3, 10] | pIC50 (SW620 cells (KRAS G12V); [11]) | pIC50 (SW620 cells (KRAS G12V); SW620 (KRAS G12V) cells) | pIC50 (SW620 cells (KRAS G12V); SW620 (KRAS G12V) cells, pERK HTRF, class symbols) | SMILES
> 7.00 | 6.00 to 7.00 | > 7.00 | 6.00 to 7.00 | 6.00 to 7.00 | > 7.00 | > 7.00 |  |  |  |  |  |  | N#Cc1c(N)sc2c(F)ccc(-c3c(C(F)(F)F)cc4c(N5CCCC[C@@H](O)C5)nc(OC[C@@]56CCCN5C[C@H](F)C6)nc4c3F)c12 [Compound 286]
 |  |  | ≥ 7.00 | ≥ 7.00 | > 7.00 |  | > 7.00 | > 7.00 | > 7.00 | > 7.00 |  |  | C[C@H](c1cccnc1N)N(C)c1nc(OC[C@@]23CCCN2C[C@H](F)C3)nc2c(F)c(-c3ccc(F)c4sc(N)c(C#N)c34)c(C(F)(F)F)cc12 (atropisomer, axis not shown) [Compound 600]
 |  |  | ≥ 7.00 | 6.00 to 7.00 | > 7.00 |  | > 7.00 | > 7.00 | > 7.00 | > 7.00 |  |  | C=C(C)C(=O)N1CC[C@H](N(CC)c2nc(OC[C@@]34CCCN3C[C@H](F)C4)nc3c(F)c(-c4ccc(F)c5sc(N)c(C#N)c45)c(C(F)(F)F)cc23)C1 (atropisomer, axis not shown) [Compound 673]
